The values that follow come from patent publication US7135466B2 (Kirin Beer Kabushiki Kaisha, priority 1999, dated 2006).

Molecules are shown by their SMILES.

Experiment [1] concerns the target T1, PDGF-Ra (Homo sapiens, UniProt P16234).
T1 construct: host or cells: G-292 human osteosarcoma cells
The experiment is described as follows: Inhibitory activity against PDGF-Ra phosphorylation by PDGF-AA stimulation using G292. The format is cell-based. Conditions: for IC50: Pharmacological Test Example 1, > means inhibition at indicated concentration not more than 50%, < and << not less than 50%, read-out: PDGF (E) IC50. Summed up:
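Human osteosarcoma G-292, 0.1% FBS o/n; cpd (DMSO) 1 h 37 °C; PDGF-AA 50 ng/ml 5 min; lyse 20 min RT; PY-20 capture 4 °C o/n; anti-PDGF-Ra + HRP-GAR; OD450.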

Experiment [2] addresses T2, c-kit (Homo sapiens, UniProt P10721).
T2 construct: MO7e (human megakaryocytic leukemia cell line) which had been arrested for 20 hr; endogenous in cells; host or cells: MO7e human megakaryocytic leukemia cell line
Nature of the experiment: Inhibitory activity against c-kit autophosphorylation (MO7e cells, h-SCF). Conditions: for inhibition at 1 µM: Mo7e, figure in parentheses in −( ), at 1000 nM; for IC50: MO7e cells, h-SCF 50 ng/ml, read-out: c-kit IC50. Type of experiment: cell-based. Summed up:
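In this cellular autophosphorylation assay, compound-treated MO7e cells (1 hr) were challenged with human stem cell factor at 50 ng/ml for 5 min; detection relied on PY-20 capture and anti-c-kit/HRP immunodetection at 450 nm.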

T1 sequence (P16234 24-1089): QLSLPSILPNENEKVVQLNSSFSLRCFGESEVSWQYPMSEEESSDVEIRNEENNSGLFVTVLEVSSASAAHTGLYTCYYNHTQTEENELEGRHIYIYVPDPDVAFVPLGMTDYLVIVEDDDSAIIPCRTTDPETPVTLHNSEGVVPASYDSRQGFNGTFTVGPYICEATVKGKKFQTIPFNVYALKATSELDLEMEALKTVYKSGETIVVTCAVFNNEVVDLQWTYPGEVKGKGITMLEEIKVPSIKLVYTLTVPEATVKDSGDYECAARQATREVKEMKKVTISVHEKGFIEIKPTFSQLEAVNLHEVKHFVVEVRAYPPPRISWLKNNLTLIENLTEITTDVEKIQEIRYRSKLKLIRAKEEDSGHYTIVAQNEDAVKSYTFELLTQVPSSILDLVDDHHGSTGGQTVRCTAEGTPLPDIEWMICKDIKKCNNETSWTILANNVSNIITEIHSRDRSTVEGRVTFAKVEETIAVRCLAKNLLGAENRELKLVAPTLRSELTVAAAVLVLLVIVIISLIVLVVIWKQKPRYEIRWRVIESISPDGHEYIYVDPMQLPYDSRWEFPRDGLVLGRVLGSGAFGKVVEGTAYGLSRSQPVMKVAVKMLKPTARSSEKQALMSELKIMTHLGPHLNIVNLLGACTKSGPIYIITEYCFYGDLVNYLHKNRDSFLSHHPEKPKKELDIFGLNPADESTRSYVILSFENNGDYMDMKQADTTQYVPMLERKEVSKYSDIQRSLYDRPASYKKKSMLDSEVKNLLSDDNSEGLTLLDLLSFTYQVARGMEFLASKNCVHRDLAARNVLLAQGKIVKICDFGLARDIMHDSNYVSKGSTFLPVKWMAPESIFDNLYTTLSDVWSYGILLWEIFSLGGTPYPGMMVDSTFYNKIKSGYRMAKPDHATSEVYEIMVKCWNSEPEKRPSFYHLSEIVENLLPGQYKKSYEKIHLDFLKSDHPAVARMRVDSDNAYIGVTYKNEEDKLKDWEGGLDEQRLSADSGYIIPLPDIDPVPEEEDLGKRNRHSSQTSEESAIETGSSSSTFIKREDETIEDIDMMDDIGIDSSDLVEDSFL
T2 sequence (P10721 26-976): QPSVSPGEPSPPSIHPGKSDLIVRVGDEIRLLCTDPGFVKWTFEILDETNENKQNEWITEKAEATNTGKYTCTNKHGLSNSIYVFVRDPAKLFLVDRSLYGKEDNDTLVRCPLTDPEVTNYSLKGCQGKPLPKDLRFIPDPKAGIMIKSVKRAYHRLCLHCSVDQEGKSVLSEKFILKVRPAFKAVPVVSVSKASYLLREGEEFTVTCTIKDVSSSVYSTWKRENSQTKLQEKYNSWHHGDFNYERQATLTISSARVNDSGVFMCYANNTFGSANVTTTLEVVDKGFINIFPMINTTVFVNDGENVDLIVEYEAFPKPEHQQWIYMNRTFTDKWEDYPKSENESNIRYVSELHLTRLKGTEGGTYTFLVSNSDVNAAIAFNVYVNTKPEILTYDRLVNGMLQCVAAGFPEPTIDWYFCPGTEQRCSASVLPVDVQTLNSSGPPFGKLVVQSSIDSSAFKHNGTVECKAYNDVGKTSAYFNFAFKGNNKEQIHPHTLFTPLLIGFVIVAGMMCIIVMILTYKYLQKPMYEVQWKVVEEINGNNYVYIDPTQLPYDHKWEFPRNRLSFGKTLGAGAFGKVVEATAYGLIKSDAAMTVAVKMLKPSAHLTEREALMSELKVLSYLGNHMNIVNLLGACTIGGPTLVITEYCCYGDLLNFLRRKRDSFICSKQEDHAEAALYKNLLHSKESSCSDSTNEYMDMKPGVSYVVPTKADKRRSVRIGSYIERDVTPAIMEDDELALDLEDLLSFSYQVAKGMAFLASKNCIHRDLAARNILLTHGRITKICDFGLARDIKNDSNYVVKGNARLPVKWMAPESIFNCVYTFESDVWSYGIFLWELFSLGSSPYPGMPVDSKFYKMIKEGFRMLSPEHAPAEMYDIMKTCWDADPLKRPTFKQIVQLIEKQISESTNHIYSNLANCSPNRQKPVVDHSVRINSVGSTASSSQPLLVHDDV

On to `COc1cc2nccc(Oc3cc(C)c(NC(=O)OCc4ccc(C(C)(C)C)cc4)cc3C)c2cc1OC` [Example 59, 4-(Tert-butyl)benzyl N-{4-[(6,7-dimethoxy-4-quinolyl)oxy]-2,5-dimethylphenyl}carbamate], for which the half-maximal inhibitory concentration (IC50) – broadly, the midpoint of a concentration-inhibition curve – in experiment [1] stood at 57 nM. Moreover, the inhibition (commonly the percentage by which the read-out fell short of the control) at 1 µM in experiment [2] was found to be 33%.

Consider `COc1cc2ncnc(Oc3ccc(NC(=O)OCc4ccc(C(C)(C)C)cc4)cc3)c2cc1OC` [Example 60, 4-(Tert-butyl)benzyl N-{4-[(6,7-dimethoxy-4-quinazolinyl)oxy]phenyl}carbamate], for which the results for the IC50 in experiment [1] and in experiment [2] were less than 10 nM and 261 nM, respectively.

In the case of `COc1cc2ncnc(Oc3ccc(NC(=O)OCc4ccc(C(C)(C)C)cc4)c(Cl)c3)c2cc1OC` [Example 61, 4-(Tert-butyl)benzyl N-{2-chloro-4-[(6,7-dimethoxy-4-quinazolinyl)oxy]phenyl}carbamate], the 50% inhibitory concentration (IC50) in experiment [1] turned out to be 10 nM. In addition, the inhibition at 1 µM in experiment [2] turned out to be 32%.

With `COc1ccc(COC(=O)Nc2ccc(Oc3ccnc4cc(OC)c(OC)cc34)cc2)cc1OC` [Example 62, 3,4-Dimethoxybenzyl N-{4-[(6,7-dimethoxy-4-quinolyl)oxy]phenyl}carbamate], the IC50 in experiment [1] amounted to 13 nM; in experiment [2], 70 nM.

In the case of `COc1ccc(COC(=O)Nc2ccc(Oc3ccnc4cc(OC)c(OC)cc34)c(C)c2C)cc1OC` [Example 63, 3,4-Dimethoxybenzyl N-{4-[(6,7-dimethoxy-4-quinolyl)oxy]-2,3-dimethylphenyl}carbamate], the 50% inhibitory concentration (IC50) in experiment [1] is 16 nM; in experiment [2], 211 nM.

`COc1ccc(COC(=O)Nc2cc(C)c(Oc3ccnc4cc(OC)c(OC)cc34)cc2C)cc1OC` [Example 64, 3,4-Dimethoxybenzyl N-{4-[(6,7-dimethoxy-4-quinolyl)oxy]-2,5-dimethylphenyl}carbamate]: the IC50 in experiment [1] was 90 nM; in experiment [2] it was 429 nM.

For the compound `COc1ccc(COC(=O)Nc2ccc(Oc3ncnc4cc(OC)c(OC)cc34)cc2)cc1OC` [Example 65, 3,4-Dimethoxybenzyl N-{4-[(6,7-dimethoxy-4-quinazolinyl)oxy]phenyl}carbamate], the IC50 is less than 10 nM in experiment [1] and 103 nM in experiment [2].

With `COc1ccc(COC(=O)Nc2ccc(Oc3ncnc4cc(OC)c(OC)cc34)cc2Cl)cc1OC` [Example 66, 3,4-Dimethoxybenzyl N-{2-chloro-4-[(6,7-dimethoxy-4-quinazolinyl)oxy]phenyl}carbamate], the IC50 in experiment [1] is 50 nM; in experiment [2] it was 353 nM.

As for `COc1ccc(OC)c(COC(=O)Nc2ccc(Oc3ccnc4cc(OC)c(OC)cc34)cc2)c1` [Example 67, 2,5-Dimethoxybenzyl N-{4-[(6,7-dimethoxy-4-quinolyl)oxy]phenyl}carbamate], the figures for the 50% inhibitory concentration (IC50) in experiment [1] and in experiment [2] were less than 10 nM and 342 nM, respectively.

As for `COc1ccc(OC)c(COC(=O)Nc2ccc(Oc3ccnc4cc(OC)c(OC)cc34)c(C)c2C)c1` [Example 68, 2,5-Dimethoxybenzyl N-{4-[(6,7-dimethoxy-4-quinolyl)oxy]-2,3-dimethylphenyl}carbamate], the half-inhibitory concentration (IC50) in experiment [1] turned out to be 13 nM; in experiment [2], 294 nM.

As to `COc1ccc(OC)c(COC(=O)Nc2cc(C)c(Oc3ccnc4cc(OC)c(OC)cc34)cc2C)c1` [Example 69, 2,5-Dimethoxybenzyl N-{4-[(6,7-dimethoxy-4-quinolyl)oxy]-2,5-dimethylphenyl}carbamate], the values for the IC50 in experiment [1] and in experiment [2] were 53 nM and 755 nM, respectively.

As to `COc1ccc(OC)c(COC(=O)Nc2ccc(Oc3ncnc4cc(OC)c(OC)cc34)cc2)c1` [Example 70, 2,5-Dimethoxybenzyl N-{4-[(6,7-dimethoxy-4-quinazolinyl)oxy]phenyl}carbamate], the IC50 in experiment [1] is less than 10 nM; in experiment [2], 451 nM.

Turning to `COc1ccc(OC)c(COC(=O)Nc2ccc(Oc3ncnc4cc(OC)c(OC)cc34)cc2Cl)c1` [Example 71, 2,5-Dimethoxybenzyl N-{2-chloro-4-[(6,7-dimethoxy-4-quinazolinyl)oxy]phenyl}carbamate], the IC50 in experiment [1] turned out to be 38 nM. Moreover, the inhibition at 1 µM in experiment [2] is 34%.

For the compound `COc1cc2nccc(Oc3ccc(NC(=O)OCCCSc4ccc(C(C)(C)C)cc4)cc3)c2cc1OC` [Example 72], the half-maximal inhibitory concentration (IC50) stood at 36 nM in experiment [1] and 387 nM in experiment [2].

On to `COc1cc2nccc(Oc3ccc(NC(=O)OCCCSc4ccc(C(C)(C)C)cc4)c(C)c3C)c2cc1OC` [Example 73, 3-{[4-(Tert-butyl)phenyl]sulfanyl}-propyl N-{4-[(6,7-dimethoxy-4-quinolyl)oxy]-2,3-dimethylphenyl}carbamate], for which the IC50 in experiment [1] stood at 28 nM; in experiment [2], 235 nM.

For `COc1cc2ncnc(Oc3ccc(NC(=O)OCCCSc4ccc(C(C)(C)C)cc4)c(Cl)c3)c2cc1OC` [Example 76, 3-{[4-(Tert-butyl)phenyl]sulfanyl}propyl N-{2-chloro-4-[(6,7-dimethoxy-4-quinazolinyl)oxy]phenyl}carbamate], in experiment [1] (G292, figure in parentheses in >100( ), at 100 nM, read-out: PDGF (E) inhibition (%) at 100 nM), the inhibition at 0.1 µM was found to be 37%. Moreover, the IC50 in experiment [1] was more than 100 nM. In experiment [2], the inhibition at 1 µM turned out to be 14%.

Consider `COc1cc2nccc(Oc3ccc(NC(=O)OCCCSc4ccc(Cl)cc4C)cc3)c2cc1OC` [Example 77, 3-[(4-Chloro-2-methylphenyl)sulfanyl]propyl N-{4-[(6,7-dimethoxy-4-quinolyl)oxy]phenyl}carbamate], for which the concentration for half-maximal inhibition (IC50) was less than 10 nM in experiment [1] and 99 nM in experiment [2].

With `COc1cc2nccc(Oc3ccc(NC(=O)OCCCSc4ccc(Cl)cc4C)c(C)c3C)c2cc1OC` [Example 78, 3-[(4-Chloro-2-methylphenyl)sulfanyl]propyl N-{4-[(6,7-dimethoxy-4-quinolyl)oxy]-2,3-dimethylphenyl}carbamate], the IC50 came to 16 nM in experiment [1] and 129 nM in experiment [2].

For `COc1cc2nccc(Oc3cc(C)c(NC(=O)OCCCSc4ccc(Cl)cc4C)cc3C)c2cc1OC` [Example 79, 3-[(4-Chloro-2-methylphenyl)sulfanyl]propyl N-{4-[(6,7-dimethoxy-4-quinolyl)oxy]-2,5-dimethylphenyl}carbamate], the IC50 turned out to be 18 nM in experiment [1] and 123 nM in experiment [2].

As for `COc1cc2ncnc(Oc3ccc(NC(=O)OCCCSc4ccc(Cl)cc4C)cc3)c2cc1OC` [Example 80], the concentration for half-maximal inhibition (IC50) was determined as 12 nM in experiment [1] and 137 nM in experiment [2].

Turning to `COc1cc2ncnc(Oc3ccc(NC(=O)OCCCSc4ccc(Cl)cc4C)c(Cl)c3)c2cc1OC` [Example 81, 3-[(4-Chloro-2-methylphenyl)sulfanyl]propyl N-{2-chloro-4-[(6,7-dimethoxy-4-quinazolinyl)oxy]phenyl}carbamate], the IC50 is 12 nM in experiment [1] and 408 nM in experiment [2].

`COc1cc2nccc(Oc3ccc(NC(=O)OCCc4cccc(C(F)(F)F)c4)cc3)c2cc1OC` [Example 82, 3-(Trifluoromethyl)phenethyl N-{4-[(6,7-dimethoxy-4-quinolyl)oxy]phenyl}carbamate]: the 50% inhibitory concentration (IC50) worked out at 10 nM in experiment [1] and 176 nM in experiment [2].

Regarding `COc1cc2nccc(Oc3ccc(NC(=O)OCCc4cccc(C(F)(F)F)c4)c(C)c3C)c2cc1OC` [Example 83, 3-(Trifluoromethyl)phenethyl N-{4-[(6,7-dimethoxy-4-quinolyl)oxy]-2,3-dimethylphenyl]carbamate], the concentration for half-maximal inhibition (IC50) turned out to be 16 nM in experiment [1] and 253 nM in experiment [2].

As to `COc1cc2nccc(Oc3cc(C)c(NC(=O)OCCc4cccc(C(F)(F)F)c4)cc3C)c2cc1OC` [Example 84, 3-(Trifluoromethyl)phenethyl N-{4-[(6,7-dimethoxy-4-quinolyl)oxy]-2,5-dimethylphenyl}carbamate], the concentration for half-maximal inhibition (IC50) was found to be 27 nM in experiment [1] and 399 nM in experiment [2].

Take `COc1cc2ncnc(Oc3ccc(NC(=O)OCCc4cccc(C(F)(F)F)c4)cc3)c2cc1OC` [Example 85, 3-(Trifluoromethyl)phenethyl N-{4-[(6,7-dimethoxy-4-quinazolinyl)oxy]phenyl}carbamate]: the IC50 in experiment [1] was less than 10 nM; in experiment [2], 163 nM.

For `COc1cc2ncnc(Oc3ccc(NC(=O)OCCc4cccc(C(F)(F)F)c4)c(Cl)c3)c2cc1OC` [Example 86], the IC50 in experiment [1] worked out at 13 nM; in experiment [2], 842 nM.

Take `COc1cc2nccc(Oc3ccc(NC(=O)OC(C)c4cccc(C(F)(F)F)c4)cc3)c2cc1OC` (stereo not shown) [Example 87, 1-[3-(Trifluoromethyl)phenyl]ethyl N-{4-[(6,7-dimethoxy-4-quinolyl)oxy]phenyl}carbamate]: the IC50 in experiment [1] is less than 10 nM; in experiment [2] it was 607 nM.

As to `COc1cc2nccc(Oc3ccc(NC(=O)OC(C)c4cccc(C(F)(F)F)c4)c(C)c3C)c2cc1OC` (stereo not shown) [Example 88, 1-[3-(Trifluoromethyl)phenyl]ethyl N-{4-[(6,7-dimethoxy-4-quinolyl)oxy]-2,3-dimethylphenyl}carbamate], the IC50 in experiment [1] came out at 19 nM. Moreover, the inhibition at 1 µM in experiment [2] is 45%.

On to `COc1cc2nccc(Oc3cc(C)c(NC(=O)OC(C)c4cccc(C(F)(F)F)c4)cc3C)c2cc1OC` (stereo not shown) [Example 89, 1-[3-(Trifluoromethyl)phenyl]ethyl N-{4-[(6,7-dimethoxy-4-quinolyl)oxy]-2,5-dimethylphenyl}carbamate], for which the IC50 in experiment [1] was 14 nM. The inhibition at 1 µM in experiment [2] came out at 35%.

For the compound `COc1cc2ncnc(Oc3ccc(NC(=O)OC(C)c4cccc(C(F)(F)F)c4)cc3)c2cc1OC` (stereo not shown) [Example 90, 1-[3-(Trifluoromethyl)phenyl]ethyl N-{4-[(6,7-dimethoxy-4-quinazolinyl)oxy]phenyl}carbamate], the 50% inhibitory concentration (IC50) in experiment [1] is less than 10 nM; in experiment [2] it was 621 nM.
